Read-outs that look alike come from different tables or passages of the source.
Experiments:
[1] = system: thymocytes of surrenalectomized rats; assay: Antiglucocorticoidal activity, incorporation of tritiated uridine in thymocytes; assay type: cell-based; details: for % inhibition of effect of Dexamethasone (symbol) / inhibition at 1 µM / % of inhibition of effect of Dexamethasone (symbol): 5 × 10^-8 M dexamethasone + test product 10^-6 M; for inhibition at 0.1 µM / inhibition at 0.01 µM / inhibition at 1 µM: Rattus norvegicus, Thymocyte; for inhibition at 0.1 µM: 5 × 10^-8 M dexamethasone + test product 10^-7 M; for inhibition at 0.01 µM: 5 × 10^-8 M dexamethasone + test product 10^-8 M; for opposition to the effect of dexamethasone on tritiated uridine incorporation (in words): with 5×10^-8 M dexamethasone
Protocol: III. Antiglucocorticoidal Activity
The test used was that of Dausse et al [Molecular Pharmacology, Vol. 13 (1977), p. 948-955] entitled "The relationship between glucocorticoid structure and effects upon thymocytes" for […] thymocytes. The thymocytes of surrenalectomized rats were incubated at 37° C. for 3 hours in a nutritive medium containing 5×10^-8 M of dexamethasone in the presence or absence of the test compound at different concentrations. Tritiated uridine was added and incubation was continued for one hour. The incubates were cooled and treated with a 5% trifluoroacetic acid solution and the mixture was filtered with Whatman GF/A paper. The filter was washed 3 times with a 5% trifluoroacetic acid solution and retained radioactivity on the filter was determined.

[2] = target: T1, Gluocorticoid receptor of thymus of rats (Rattus norvegicus, UniProt P06536); assay: Glucocorticoid receptor binding (displacement of tritiated dexamethasone); details: for affinity for glucocorticoid receptors (in words): conclusion
T1 construct: The thymus were removed and homogenized at 0° C; from tissue; host or cells: rat thymus, 105,000 g supernatant (adrenalectomized male Sprague-Dawley rats)
T1 sequence (P06536 1-795): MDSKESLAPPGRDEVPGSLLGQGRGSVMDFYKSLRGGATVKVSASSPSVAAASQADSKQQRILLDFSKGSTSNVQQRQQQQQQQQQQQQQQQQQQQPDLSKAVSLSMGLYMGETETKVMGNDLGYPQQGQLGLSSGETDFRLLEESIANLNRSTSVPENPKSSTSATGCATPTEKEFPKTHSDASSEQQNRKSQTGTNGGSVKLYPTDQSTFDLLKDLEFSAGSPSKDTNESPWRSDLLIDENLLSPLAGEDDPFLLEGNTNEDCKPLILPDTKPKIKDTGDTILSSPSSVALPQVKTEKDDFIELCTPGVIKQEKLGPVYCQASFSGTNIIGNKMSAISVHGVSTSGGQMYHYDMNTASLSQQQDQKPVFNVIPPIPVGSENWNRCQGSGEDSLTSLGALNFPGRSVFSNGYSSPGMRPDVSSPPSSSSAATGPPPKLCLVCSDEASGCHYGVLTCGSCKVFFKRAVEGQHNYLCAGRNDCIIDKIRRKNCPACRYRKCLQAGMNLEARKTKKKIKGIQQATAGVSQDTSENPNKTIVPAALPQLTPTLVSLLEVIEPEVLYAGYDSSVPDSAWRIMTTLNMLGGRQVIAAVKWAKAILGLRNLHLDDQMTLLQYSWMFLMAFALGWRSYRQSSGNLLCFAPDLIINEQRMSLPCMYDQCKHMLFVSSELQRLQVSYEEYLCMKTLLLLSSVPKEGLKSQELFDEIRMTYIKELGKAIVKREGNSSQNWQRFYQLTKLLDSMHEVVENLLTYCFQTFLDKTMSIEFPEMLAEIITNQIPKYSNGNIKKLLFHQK
Protocol: D. Gluocorticoid receptor of thymus of rats
Male Sprague-Dawley EPOS rats weighing 160 to 200 g were surrenalectomized and the animals were killed 4 to 8 days later. The thymus were removed and homogenized at 0° C. in a buffered TS solution of 10 mM, Tris, 0.25M of Saccharose, 2 mM of dithiothreitol HCl for a pH of 7.4 using a polytetrafluoroethylene-glass Potter at a rate of 1 g of tissue per 10 ml of TS. […] The concentration of tied tritiated dexamethasone (B) was measured for each incubate by the adsorption on carbon-dextran technique.
The calculation of the relative affinity of […] (ARL) was identical for all of the above receptor tests. One traced the following two curves: the percentage of tied tritiated hormone B/T as a function of the logarithm of the cold hormone concentration and B/T as a function of the logarithm of the concentration of the cold test product. One determined the line of the equation. [formula]
The intersection of the I50 line and the curves permits one to determine the concentrations of the cold hormone of the reference (CH) and the cold test compound (CX) which inhibit by 50% the tieing of tritiated hormone with the receptor. The relative affinity of tieing (ARL) of the test product was determined by the equation: [formula]

[3] = read-out: % inhibition of effect of Dexamethasone
[4] = second table, read-out: % of inhibition of effect of Dexamethasone
[5] = second table, incubation 4 H at 0° C.
[6] = second table, incubation 24 H at 0° C.

| SMILES | % inhibition of effect of Dexamethasone (symbol) [1] | inhibition at 0.1 µM [1, 3] [%] | inhibition at 0.01 µM [1, 3] [%] | relative affinity of tieing (ARL), Glucocorticoid ([2]; incubation 4 H at 0° C.) | relative affinity of tieing (ARL), Glucocorticoid ([2]; incubation 24 H at 0° C.) | opposition to the effect of dexamethasone on tritiated uridine incorporation (in words) [1] | relative affinity of tieing (ARL), Glucocorticoid [2, 5] | relative affinity of tieing (ARL), Glucocorticoid [2, 6] | further results |
| --- | --- | --- | --- | --- | --- | --- | --- | --- | --- |
| CC#C[C@]1(OC(C)=O)CC[C@H]2[C@@H]3CCc4cc(O)ccc4[C@H]3[C@@H](c3ccc(N(C)C)cc3)C[C@@]21C [2 (17 OAc), 11β-(4-dimethylaminophenyl)-17α-(prop-1-ynyl)-17β-acetoxy-Δ^1,3,5(10) -estratriene-3-ol] | * (A dose of 10^-6 M inhibited the effect of dexamethasone totally) | 76 | 24 | 58 | 100 | – | – | – | – |
| CC#C[C@]1(O)CC[C@H]2[C@@H]3CCC4=CC(=O)[C@H](C)CC4=C3[C@@H](c3ccc(N(C)C)cc3)C[C@@]21C [5 (2α), 2α-methyl-11β-(4-dimethylaminophenyl)-17α-(prop-1-ynyl)-Δ^4,9-estradiene-17β-ol-3-one] | – | 57 | 19 | 214 | 255 | – | – | – | inhibition at 1 µM [1, 3]: 100% |
| CC#C[C@]1(O)CC[C@H]2[C@@H]3CCC4=CC(=O)[C@@H](C)CC4=C3[C@@H](c3ccc(N(C)C)cc3)C[C@@]21C [5 (2β), 2-methyl-11β-(4-dimethylaminophenyl)-17α-(prop-1-ynyl)-Δ^4,9-estradiene-17β-ol-3-one] | * (A dose of 10^-6 M inhibited the effect of dexamethasone totally) | 57 | 10 | 224 | 299 | – | – | – | – |
| CC#C[C@]1(O)CC[C@H]2[C@@H]3CCC4=CC(=O)C(C)(C)CC4=C3[C@@H](c3ccc(N(C)C)cc3)C[C@@]21C [Example 1, 2,2-dimethyl-11β-(4-dimethylaminophenyl)-17α-(prop-1-ynyl)-Δ^4,9-estradiene-17β-ol-3-one] | * (A dose of 10^-6 M inhibited the effect of dexamethasone totally) | 18 | 8 | 97 | 38 | opposed this effect | – | – | – |
| CC#C[C@]1(O)CC[C@H]2[C@@H]3CCC4=CC(=O)[C@H](C)CC4=C3[C@@H](c3ccc(N(C)C)cc3)C[C@@]21C [Example 5, 2α-methyl-11β-(4-dimethylaminophenyl)-17α-(prop-1-ynyl)-Δ^4,9-estradiene-17β-ol-3-one] | – | – | – | – | – | opposed this effect | – | – | affinity for glucocorticoid receptors (in words) [2]: very remarkable affinity |
| CC#C[C@]1(O)CC[C@H]2[C@@H]3CCC4=CC(=O)C(C#N)(C#N)CC4=C3[C@@H](c3ccc(N(C)C)cc3)C[C@@]21C [Example 9, 2,2-dicyano-11β-(4-dimethylaminophenyl)-17α-(prop-1-ynyl)-Δ^4,9-estradiene-17β-ol-3-one] | – | 1 | 3 | 14 | 7 | – | – | – | inhibition at 1 µM [1, 3]: 2% |
| CC#C[C@]1(O)CC[C@H]2[C@@H]3CCC4=C(CCC(=O)C4)[C@H]3[C@@H](c3ccc(N(C)C)cc3)C[C@@]21C [Example 10, 11β-(4-dimethylaminophenyl)-17α-(prop-1-ynyl)-Δ^5(10) -estrene-17β-ol-3-one] | * (A dose of 10^-6 M inhibited the effect of dexamethasone totally) | 23 | 0 | 83 | 115 | opposed this effect | – | – | – |
| C#C[C@@]1(O)CC[C@H]2[C@@H]3CCC4=CC(=O)CCC4=C3[C@@H](c3ccc(N(C)C)cc3)C[C@@]21C [Example 21, 11β-[4-(N,N-dimethylamino)-phenyl]-17β-ethynyl-Δ^4,9-estradiene-17α-ol-3-one] | – | – | – | – | – | opposed this effect | 171 | 118 | inhibition at 1 µM [1, 4]: 83%; inhibition at 0.1 µM [1, 4]: 15%; inhibition at 0.01 µM [1, 4]: 5% |
| C=C(C)C#C[C@]1(O)CC[C@H]2[C@@H]3CCC4=CC(=O)CCC4=C3[C@@H](c3ccc(N(C)C)cc3)C[C@@]21C [Example 23, 11β-[4-(N,N-dimethylamino)-phenyl]-23-methyl-19,21-dinor-17α-Δ^4,9,23-cholatriene-20-yn-17β-ol-3-one] | – | – | – | – | – | opposed this effect | 212 | 167 | inhibition at 0.1 µM [1, 4]: 53%; inhibition at 0.01 µM [1, 4]: 22%; % of inhibition of effect of Dexamethasone (symbol) ([1]; second table): * (A dose of 10^-6 M inhibited totally the effect of dexamethasone) |
| CN(C)c1ccc([C@H]2C[C@@]3(C)[C@@H](CC[C@@]3(O)C#CCl)[C@@H]3CCC4=CC(=O)CCC4=C32)cc1 [Example 25, 11β-[4-(N,N-dimethylamino)-phenyl]-21-chloro-19-nor-17α-Δ^4,9-pregnadiene-20-yne-17β-ol-3-one] | – | – | – | – | – | opposed this effect | 254 | 292 | inhibition at 0.1 µM [1, 4]: 85%; inhibition at 0.01 µM [1, 4]: 57%; % of inhibition of effect of Dexamethasone (symbol) ([1]; second table): * (A dose of 10^-6 M inhibited totally the effect of dexamethasone); affinity for glucocorticoid receptors (in words) [2]: very remarkable affinity |
| C[C@]12C[C@H](c3ccc([N+](C)(C)[O-])cc3)[C@]34O[C@]35CCC(=O)C=C5CC[C@H]4[C@@H]1CC[C@@]2(O)C#CCl [Example 27, N-oxide of 11β-[4-(N,N-dimethylamino)-phenyl]-9α,10α-epoxy-21-chloro-19-nor-17α-Δ^4-pregnene-20-yne-17β-ol-3-one] | – | – | – | – | – | – | 5,3 | 6,2 | – |
| C#C[C@]1(O)CC[C@H]2[C@@H]3CCC4=CC(=O)CCC4=C3[C@@H](c3ccc(N(C)C)cc3)C[C@@]21C [Example 32, 11β-[4-(N,N-dimethylamino)-phenyl]-17α-ethynyl-Δ^4,9-estradiene-17β-ol-3-one] | – | – | – | – | – | – | 279 | 235 | affinity for glucocorticoid receptors (in words) [2]: very remarkable affinity |
| CN(C)c1ccc([C@H]2C[C@@]3(C)[C@@H](CC[C@@]3(O)C#C[Si](C)(C)C)[C@@H]3CCC4=CC(=O)CCC4=C32)cc1 [Example 44, 11β-[4-(N,N-dimethylamino)-phenyl]-21-trimethylsilyl-19-nor-17α-Δ^4,9-pregnadiene-20-yne-17β-ol-3-one] | – | – | – | – | – | – | 79 | 104 | – |

— patent publication US5043332A, “Novel 11β-substituted -19-nor-steriods” (priority 1981, dated 1991)
